Assay results as given in patent US11554116B2, “Agent for preventing and/or treating alzheimer's disease” (KYOTO UNIVERSITY, priority 2017, dated 2023).
Where a name gives a salt, the structure may show the parent alone. Read-outs that look alike come from different tables or passages of the source.

System: Aβ production (Aβ1-40, 1-42 in culture supernatant)
Assay: Aβ assay in cerebral cortex nerve cells induced from familial AD patient iPS cells (PSEN1 G384A)
Format: cell-based, human
[1] = added at 0.0016, 0.008, 0.04, 0.2, 1, 5, 25 μM to cerebral cortex nerve cells, 48 hr

Structure (SMILES) | Aβ production-lowering action | change of Aβ production [1] | also measured
CC(C)C[C@H]1C(=O)N2CCC[C@H]2[C@]2(O)O[C@](NC(=O)[C@@H]3C=C4c5cccc6[nH]cc(c56)C[C@H]4N(C)C3)(C(C)C)C(=O)N12 [Alpha-Ergocryptine, α-ergocryptine] | showed an Aβ production-lowering action similar to that of bromocriptine | – | Aβ42/40 ratio: did not change; lowering of Aβ42 subtype compared with Aβ40: lowered Aβ40 and 42 to the same degree
C=CCN1C[C@H](C(=O)N(CCCN(C)C)C(=O)NCC)C[C@@H]2c3cccc4[nH]cc(c34)C[C@H]21 [Cabergoline] | – | – | Aβ production-lowering action (at 25 μM, cerebral cortex nerve cells, 48 hr): showed an Aβ production-lowering action
CC(C)[C@@]1(NC(=O)[C@@H]2C[C@@H]3c4cccc5[nH]cc(c45)C[C@H]3N(C)C2)O[C@@]2(O)[C@@H]3CCCN3C(=O)[C@H](Cc3ccccc3)N2C1=O [Dihydroergocristine mesylate, dihydroergocristine] | showed a similar Aβ production-lowering action | – | –
CN1C[C@H](C(=O)N[C@]2(C)O[C@@]3(O)[C@@H]4CCCN4C(=O)[C@H](Cc4ccccc4)N3C2=O)C[C@@H]2c3cccc4[nH]cc(c34)C[C@H]21.CS(=O)(=O)O [Dihydroergotamine Mesylate, dihydroergotamine] | showed a similar Aβ production-lowering action | – | –
CC(C)[C@@]1(NC(=O)[C@@H]2C=C3c4cccc5[nH]cc(c45)C[C@H]3N(C)C2)O[C@@]2(O)[C@@H]3CCCN3C(=O)[C@H](Cc3ccccc3)N2C1=O [Ergocristine, ergocristine] | showed a similar Aβ production-lowering action | – | –
CN1C[C@H](C(=O)N[C@]2(C)O[C@@]3(O)[C@@H]4CCCN4C(=O)[C@H](Cc4ccccc4)N3C2=O)C=C2c3cccc4[nH]cc(c34)C[C@H]21.CN1C[C@H](C(=O)N[C@]2(C)O[C@@]3(O)[C@@H]4CCCN4C(=O)[C@H](Cc4ccccc4)N3C2=O)C=C2c3cccc4[nH]cc(c34)C[C@H]21.O=C(O)C(O)C(O)C(=O)O [Ergotamine Tartrate, ergotamine] | showed a similar Aβ production-lowering action | – | –
Cc1cccc(C(=O)NCN2CCN(c3ccccc3C#N)CC2)c1 [PD168077] | – | none of the compounds changed Aβ production | –
CCCN1C[C@H](CSC)C[C@@H]2c3cccc4[nH]cc(c34)C[C@H]21 [Pergolide mesylate] | – | – | Aβ production-lowering action (at 5, 25 μM, cerebral cortex nerve cells, 48 hr): showed an Aβ production-lowering action
CCCN[C@H]1CCc2nc(N)sc2C1 [Pramipexole dihydrochloride] | – | none of the compounds changed Aβ production | –
CCCN(CCC)CCc1cccc2c1CC(=O)N2 [Ropinirole hydrochloride] | – | none of the compounds changed Aβ production | –
Oc1cc2c(cc1O)C(c1ccccc1)CNCC2 (stereo not drawn) [SKF38393] | – | none of the compounds changed Aβ production | –
C=CCN1CCc2nc(N)sc2CC1 [Talipexole] | – | none of the compounds changed Aβ production | –
CC(C)C[C@H]1C(=O)N2CCC[C@H]2[C@]2(O)O[C@](NC(=O)[C@@H]3C=C4c5cccc6[nH]c(Br)c(c56)C[C@H]4N(C)C3)(C(C)C)C(=O)N12 [bromocriptine] | decreases the production of Aβ | – | Aβ42/40 ratio: lower Aβ42/40 ratio; lowering of Aβ42 subtype compared with Aβ40: more efficiently reduced the production of Aβ42 subtype than Aβ40
Cl.NCCc1ccc(O)c(O)c1 [dopamine hydrochloride] | – | – | change of Aβ production: none of the compounds changed Aβ production
